This is an account of results in article PMC5587642, “A Novel Benzocoumarin-Stilbene Hybrid as a DNA ligase I inhibitor with in vitro and in vivo anti-tumor activity in breast cancer models” (Scientific Reports, 2017).

In one data set the test system is MDA-MB-231 cells. In words: Annexin V-FITC/PI apoptosis flow cytometry. The data set is classed as cell-based, human. The procedure:
Apoptotic cell death of MDA-MB-231 cells upon treatment with compound 19 was measured using a commercially available Annexin V-FITC apoptosis detection kit according to the manufacturer’s protocol (BD Biosciences, San Diego, CA). Briefly, cells were treated with different concentrations (0, 6 and 12 µM) of compound 19 for 24 and 48 h. The cells were then harvested, washed with cold PBS and stained with Annexin V-FITC and propidium iodide (PI) in binding buffer at room temperature in the dark. The stained cells were analyzed by fluorescence-activated cell sorting using a FACS-Calibur instrument (BD Biosciences, San Diego, CA) equipped with CellQuest 3.3 Software.
In general terms: Flow cytometry measures light scatter and fluorescence of single cells or particles in a stream.

Data set [1] is described as follows: In-vivo pharmacokinetic study. Details: species or system Sprague Dawley (SD) rats. As to conditions: rat. The procedure: Male Sprague Dawley (SD) rats weighing 200–220 g were obtained from the Laboratory of Animal Division of CSIR-CDRI (Lucknow, India). Animals were kept in well ventilated cages in hygienic conditions at room temperature (24 ± 2 °C), 40–60% relative humidity and 12 h light-dark cycle. The animals were acclimatized for a minimum period of 3 days prior to the experiments. Pharmacokinetic study was conducted according to protocol approved by the CSIR-CDRI Institutional Animal Ethic Committee (IAEC approval no. IAEC/2012/91). Compound 19 was dissolved in DMSO:Poly Ethylene Glycol-400: 0.9%w/v saline in the ratio of 1:1:2 and was intravenously administered at the dose of 5 mg/kg to each rat (n = 6). The rats were kept on fasting overnight with water alone for oral pharmacokinetic studies. Compound 19 was dissolved in DMSO:Poly Ethylene Glycol-400: 0.5% w/v Sodium carboxymethyl cellulose in TDW in the ratio of 3:1:4 and was orally administered at the dose of 50 mg/kg to each rat (n = 6). Blood samples were collected in microcentrifuge tubes for each time point at 0.083, 0.167, 0.333, 0.5, 0.75, 1.0, 2.0, 4.0, 6.0, 8.0, 10.0, 12.0, 24.0, 48.0 and 72 h post dosing. The blood samples were collected after light ether anesthesia from the retro-orbital plexus of rats using heparin as anticoagulant. Plasma was separated after centrifugation at 5000 rpm for 10 min and all the samples were stored at −80 °C until analysis. Rat plasma samples were processed using liquid-liquid extraction. 100 µL aliquot of plasma mixed with 150 µL of acetonitrile and 100 µL of 5 mM NaHCO3 solution was added and vortexed to mix well. In each sample, 2.5 mL of tert-Butyl methyl ether (TBME) (extraction solvent) was added and vortexed for 10 min at 2500 rpm on vibramax (Heidolph, Schwabach, Germany) followed by centrifugation (Eppendorf, Hamburg, Germany) at 5,000 rpm for 5 min. An aliquot of 2.0 mL of supernatant organic layer was separated and evaporated on vacuum concentrator (Thermo scientific, Asheville, USA) to complete dryness. The residue was reconstituted with 100 µL of mobile phase and injected into the LC-MS/MS system for analysis. The plasma samples ([…]) were assayed along with calibration standards and QC samples and the levels of compound 19 was calculated using Analyst software. The pharmacokinetic profile and parameters were evaluated by non-compartmental model approach using Pheonix 6.3 WinNonlin (Pharsight corporation, USA) including t1/2, elimination half-life; Cmax, maximum plasma concentration; tmax, time to reach maximum plasma concentration; AUC0-t, area under concentration curve from zero to last time point.

For the next data set, the target named is T1, FEN1 protein (Homo sapiens, UniProt P39748).
T1 construct: His-tag (C); made in house; host or cells: E. coli BL21DE3
T1 sequence (P39748 whole entry): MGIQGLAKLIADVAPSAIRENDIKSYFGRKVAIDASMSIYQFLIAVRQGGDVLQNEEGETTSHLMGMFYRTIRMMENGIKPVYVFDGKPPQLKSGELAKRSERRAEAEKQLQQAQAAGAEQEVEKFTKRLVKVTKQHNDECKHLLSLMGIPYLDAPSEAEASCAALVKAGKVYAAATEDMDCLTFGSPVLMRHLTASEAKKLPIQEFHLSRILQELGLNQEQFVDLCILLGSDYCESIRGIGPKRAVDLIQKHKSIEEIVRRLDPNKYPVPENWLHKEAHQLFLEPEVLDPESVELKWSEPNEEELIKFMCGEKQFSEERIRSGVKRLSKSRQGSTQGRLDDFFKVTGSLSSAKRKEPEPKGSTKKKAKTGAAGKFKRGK
Briefly: Flap cleavage assay. Type of data set: biochemical. As to conditions: compound 19 at 5, 10, 20 µM. The procedure: Purification of FEN 1: Full length FEN1 DNA template was taken from pShuttle-FEN1hWT, a gift from Sheila Stewart (Addgene plasmid#35027) is subcloned into a pET41a expression vector containing C-terminal His-tag. pET41FEN1His freshly transformed into expression host BL21DE3 E. coli cells (Novagene), single colonies picked and inoculated in 5ml of LB media containing 50μg/ml of Kanamycin, grown for 3 to 4 hrs and further subcultured in 100 ml of LB medium containing 50μg/ml of Kanamycin and grown at 37°C till the OD reached to 0.6-0.7, induced at 0.5 mM IPTG at 16°C for 18hrs. Pellets were collected and lysed in 20 mM tris 150 mM NaCl (Lysis buffer) containing 1mM PMSF and 1mM benzamidine hydrochloride and purified by Ni-NTA affinity chromatography.
Flap cleavage assay: All oligos were purchased from Integrated DNA Technologies and dissolved in nuclase free water at concentration of 100μM. FAM-labeled 25+6 Flap-mer (5’-[…]-3’*6FAM)) was annealed with 52- mer (5’-[…]-3’) and 27-mer (5’-[…]-3’) to form a complementary double strand flap cleavage substrate. […] The cleaved and uncleaved DNA molecules are separated on 15% Urea gel and bands were detected by Image Quant LAS 4010 (GE Healthcare).

The next data set addresses T2, hLigI and DNA complex (Homo sapiens, UniProt P18858).
T2 construct: made in house
Briefly: Electrophoretic mobility shift assay (EMSA). Type of data set: binding. As to conditions: 120, 250, 500 µM. Here is the method: EMSA was performed as described previously. Briefly, in 20 μl reaction volume 2 pmol non-ligatable nicked DNA substrate was incubated with DMSO (vehicle control) or with different concentrations (120, 250, 500 µM) of compound 19 incubated with 10 pmol of hligI in ligation buffer. After the incubation, samples were separated by 6.5% native PAGE and bands were detected and imaged by Image Quant LAS 4010 (GE Life sciences).
(In general: In EMSA bound probe runs differently from free probe, usually more slowly.)

The target in the next data set is PARP1 (Homo sapiens, UniProt P09874). In words: PARP1 activity assay (NAD fluorescence). Conditions: compound 19 at 5, 10 and 20 µM.
Sequence of PARP1 (P09874 whole entry): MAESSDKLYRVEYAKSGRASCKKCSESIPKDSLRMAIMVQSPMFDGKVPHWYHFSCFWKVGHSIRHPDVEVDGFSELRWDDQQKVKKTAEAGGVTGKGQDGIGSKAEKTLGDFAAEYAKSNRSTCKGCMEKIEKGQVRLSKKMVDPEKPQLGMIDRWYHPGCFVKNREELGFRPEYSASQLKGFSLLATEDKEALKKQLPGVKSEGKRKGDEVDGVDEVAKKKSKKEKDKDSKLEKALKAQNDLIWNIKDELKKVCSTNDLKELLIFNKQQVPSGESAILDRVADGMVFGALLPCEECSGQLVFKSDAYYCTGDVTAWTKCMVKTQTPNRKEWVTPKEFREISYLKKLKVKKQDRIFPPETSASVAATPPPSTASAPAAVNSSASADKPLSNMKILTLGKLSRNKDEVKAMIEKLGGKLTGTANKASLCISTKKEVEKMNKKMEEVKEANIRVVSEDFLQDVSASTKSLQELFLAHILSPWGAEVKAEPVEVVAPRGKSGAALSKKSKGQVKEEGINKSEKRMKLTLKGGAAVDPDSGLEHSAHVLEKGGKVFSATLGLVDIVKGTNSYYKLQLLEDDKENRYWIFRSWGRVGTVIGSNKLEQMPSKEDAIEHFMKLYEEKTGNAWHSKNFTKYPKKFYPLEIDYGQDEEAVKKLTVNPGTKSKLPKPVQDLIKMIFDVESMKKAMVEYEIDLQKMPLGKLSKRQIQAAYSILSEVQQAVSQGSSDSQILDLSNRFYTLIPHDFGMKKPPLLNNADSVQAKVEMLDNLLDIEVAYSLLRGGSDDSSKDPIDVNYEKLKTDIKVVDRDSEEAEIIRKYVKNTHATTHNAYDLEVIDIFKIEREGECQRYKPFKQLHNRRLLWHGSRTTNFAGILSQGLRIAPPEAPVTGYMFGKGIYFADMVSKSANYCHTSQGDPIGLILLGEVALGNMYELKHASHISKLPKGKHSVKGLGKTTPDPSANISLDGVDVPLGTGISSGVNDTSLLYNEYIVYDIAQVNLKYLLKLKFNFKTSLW
Setting [2] is: male, Sprague Dawley, plasma, iv, I.V route, 5 mg/kg.
Setting [3] is: male, Sprague Dawley, plasma, oral route, 50 mg/kg.

T2 sequence (P18858 whole entry, one chain of several): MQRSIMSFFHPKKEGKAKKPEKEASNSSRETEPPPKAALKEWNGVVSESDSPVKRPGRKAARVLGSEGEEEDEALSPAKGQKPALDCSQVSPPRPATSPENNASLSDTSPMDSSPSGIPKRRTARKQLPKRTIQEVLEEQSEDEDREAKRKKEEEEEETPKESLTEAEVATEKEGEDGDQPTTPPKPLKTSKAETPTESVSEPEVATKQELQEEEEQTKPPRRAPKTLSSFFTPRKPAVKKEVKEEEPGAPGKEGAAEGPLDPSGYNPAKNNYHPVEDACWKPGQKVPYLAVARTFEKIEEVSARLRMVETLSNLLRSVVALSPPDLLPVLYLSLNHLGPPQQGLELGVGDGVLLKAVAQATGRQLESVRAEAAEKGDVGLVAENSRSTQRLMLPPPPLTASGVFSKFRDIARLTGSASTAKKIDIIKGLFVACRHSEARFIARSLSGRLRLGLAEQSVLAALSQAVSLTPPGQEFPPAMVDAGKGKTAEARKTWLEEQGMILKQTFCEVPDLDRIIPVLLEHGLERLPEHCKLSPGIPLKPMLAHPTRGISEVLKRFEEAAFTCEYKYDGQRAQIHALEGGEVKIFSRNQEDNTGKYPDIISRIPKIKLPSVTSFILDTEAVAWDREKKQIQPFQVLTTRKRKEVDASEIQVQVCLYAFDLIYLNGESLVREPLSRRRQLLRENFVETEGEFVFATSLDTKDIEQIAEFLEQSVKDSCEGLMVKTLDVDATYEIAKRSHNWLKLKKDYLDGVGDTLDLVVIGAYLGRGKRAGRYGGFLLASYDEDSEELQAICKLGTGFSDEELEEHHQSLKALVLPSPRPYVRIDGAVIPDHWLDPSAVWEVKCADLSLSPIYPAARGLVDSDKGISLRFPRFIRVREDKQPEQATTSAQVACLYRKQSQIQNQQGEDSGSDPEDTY
Text for PARP1: Human PARP1 full length protein was purified as described previously ^4,5.
Samples were cooled and fluorescence measurement carried out at excitation 360nm and emission range 445nm.

Usually Cmax stands for the peak of the concentration-time curve. Broadly, the AUC(0-t) is exposure summed from dosing to a finite time, without extrapolation to infinity. Broadly, the half-life is the time needed for the level to fall by half in the phase considered. For orientation: bioavailability means the share of a dose that reaches the circulation, judged against a reference dose that is usually intravenous. As usually defined, the Tmax is the time from dosing to the highest level. Take `COc1cc(/C=C/c2cc(=O)oc3c2ccc2ccccc23)cc(OC)c1` [Compound 19, (E)-4-(3,5-dimethoxystyryl)-2H-benzo[h]chromen-2-one]: the Apoptosis in the data set on MDA-MB-231 cells (6 µM, 24 h) worked out at 10.78 ± 1.21%; in the data set with MDA-MB-231 cells (6 µM, 48 h) it was 18.68 ± 4.86%; in the data set with MDA-MB-231 cells (12 µM, 24 h) it was 16.37 ± 1.18%; with MDA-MB-231 cells (12 µM, 48 h), 36.17 ± 3.43%. Moreover, the peak concentration (Cmax) worked out at 325 ± 102 ng/mL in data set [1] (male, Sprague Dawley, iv, I.V route, 5 mg/kg, plasma concentration at 5 min) and 13.4 ± 2.92 ng/mL in data set [1] (setting [3]). In addition, the area under the curve AUC(0-t) was 457 ± 131 ng·h/mL in data set [1] (setting [2]) and 342 ± 18.6 ng·h/mL in data set [1] (setting [3]). Moreover, the half-life in data set [1] (setting [2]) is 19.2 ± 11.8 h; in data set [1] (setting [3]), 22.8 ± 4.69 h. Also, in data set [1] (male, Sprague Dawley, plasma, oral 50 mg/kg versus I.V 5 mg/kg, read-out: Bioavailability (%F)), the bioavailability turned out to be 7.85 ± 0.65%. In addition, in data set [1] (setting [3]), the Tmax turned out to be 0.5 h. Moreover, the “Time up to which plasma concentrations are detectable” value in data set [1] (after oral dosing, 50 mg/kg) is “up to 72 h”. For the same molecule, on FEN1 protein, the “Inhibition of FEN1 flap cleavage activity” value is “not able to inhibit”. The “hLigI and DNA complex formation (EMSA)” value at hLigI and DNA complex was “decreased the hLigI and DNA complex formation”. The “Inhibition of PARP1 activity” value at PARP1 is on record as “not able to inhibit”.
